# From ChEMBL document CHEMBL5505985 (Eur J Med Chem, 2024)
# What was measured:
# [1] = system: RAW264.7; assay: Cytotoxicity activity mouse RAW264.7 cells assessed as reduction in cell viability at 10 uM incubated for 48 hrs by MTT assay; type: toxicity, cell-based; conditions: raw264.7, 48 h
# [2] = system: RAW264.7; assay: Cytotoxicity activity mouse RAW264.7 cells assessed as decrease in survival rate at 50 uM incubated for 48 hrs by MTT assay; type: toxicity, cell-based; conditions: raw264.7, 48 h
# [3] = biological target: T1, Prostaglandin G/H synthase 2 (Homo sapiens) (UniProt P35354); assay: Inhibition of human recombinant COX-2 using arachidonic acid as substrate at 10 uM pretreated for 5 mins followed by substrate addition and measured after 2 mins by fluorescence based analysis relative to control; conditions: time 7.0 min
# T1 sequence (whole entry): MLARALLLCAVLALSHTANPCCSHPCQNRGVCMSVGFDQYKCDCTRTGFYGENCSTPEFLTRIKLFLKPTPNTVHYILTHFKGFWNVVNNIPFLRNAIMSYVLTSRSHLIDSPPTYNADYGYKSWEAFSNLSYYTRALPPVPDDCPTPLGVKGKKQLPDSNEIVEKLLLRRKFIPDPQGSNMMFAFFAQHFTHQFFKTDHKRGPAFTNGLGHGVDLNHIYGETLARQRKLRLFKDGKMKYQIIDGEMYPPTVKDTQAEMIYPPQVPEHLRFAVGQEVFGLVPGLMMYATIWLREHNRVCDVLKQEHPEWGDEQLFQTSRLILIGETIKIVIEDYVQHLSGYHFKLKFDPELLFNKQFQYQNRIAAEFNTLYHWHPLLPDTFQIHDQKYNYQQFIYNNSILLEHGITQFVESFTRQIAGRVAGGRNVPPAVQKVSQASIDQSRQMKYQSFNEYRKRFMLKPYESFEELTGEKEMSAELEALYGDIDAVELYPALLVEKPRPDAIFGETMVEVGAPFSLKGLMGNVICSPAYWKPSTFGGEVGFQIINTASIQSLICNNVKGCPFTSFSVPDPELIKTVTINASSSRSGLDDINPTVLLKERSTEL
SMILES,Activity [1],Activity [2],inhibition [3] [%]
COc1ccc(CSc2nnc(Cc3ccccc3Nc3c(Cl)cccc3Cl)o2)cc1,Non-Toxic,–,–
Fc1ccc(CSc2nnc(Cc3ccccc3Nc3c(Cl)cccc3Cl)o2)cc1,Non-Toxic,–,–
O=[N+]([O-])c1ccccc1C1=Nn2c(Cc3ccccc3Nc3c(Cl)cccc3Cl)nnc2SC1,Non-Toxic,–,–
Cc1ccccc1CSc1nnc(Cc2ccccc2Nc2c(Cl)cccc2Cl)o1,Non-Toxic,–,–
COc1cccc(C2=Nn3c(Cc4ccccc4Nc4c(Cl)cccc4Cl)nnc3SC2)c1,Non-Toxic,–,–
Fc1cccc(C2=Nn3c(Cc4ccccc4Nc4c(Cl)cccc4Cl)nnc3SC2)c1,Non-Toxic,–,–
O=C(Cc1ccccc1Nc1c(Cl)cccc1Cl)NN1C(=O)c2ccccc2C1=O,Non-Toxic,Toxic,–
N#Cc1ccc(CSc2nnc(Cc3ccccc3Nc3c(Cl)cccc3Cl)o2)cc1,Non-Toxic,–,–
CSc1nnc(Cc2ccccc2Nc2c(Cl)cccc2Cl)o1,Non-Toxic,–,–
Fc1ccc(CSc2nnc(Cc3ccccc3Nc3c(Cl)cccc3Cl)o2)c(F)c1,Non-Toxic,–,–
Cc1cccc(CSc2nnc(Cc3ccccc3Nc3c(Cl)cccc3Cl)o2)c1,Non-Toxic,–,–
Clc1cccc(Cl)c1Nc1ccccc1Cc1nnc(SCc2ccc(Br)cc2)o1,Non-Toxic,–,–
Fc1cccc(CSc2nnc(Cc3ccccc3Nc3c(Cl)cccc3Cl)o2)c1,Non-Toxic,–,–
CCCSc1nnc(Cc2ccccc2Nc2c(Cl)cccc2Cl)o1,Non-Toxic,–,–
O=C(Cc1ccccc1Nc1c(Cl)cccc1Cl)NN1C(=O)CCC1=O,Non-Toxic,–,–
Clc1cccc(C2=Nn3c(Cc4ccccc4Nc4c(Cl)cccc4Cl)nnc3SC2)c1,Non-Toxic,Toxic,–
Clc1cccc(Cl)c1Nc1ccccc1Cc1nnc2n1N=C(c1ccc(Br)cc1)CS2,Non-Toxic,–,–
Clc1cccc(Cl)c1Nc1ccccc1Cc1nnc(SCC2CCCCC2)o1,Non-Toxic,–,–
Clc1ccc(CSc2nnc(Cc3ccccc3Nc3c(Cl)cccc3Cl)o2)cc1,Non-Toxic,–,< 30

SMILES,Activity [1],Activity [2],inhibition [3] [%]
CCCCSc1nnc(Cc2ccccc2Nc2c(Cl)cccc2Cl)o1,Non-Toxic,–,–
CC(C)Sc1nnc(Cc2ccccc2Nc2c(Cl)cccc2Cl)o1,Non-Toxic,–,–
Clc1cccc(Cl)c1Nc1ccccc1Cc1nnc2n1N=C(c1cccc(Br)c1)CS2,Non-Toxic,Toxic,–
COc1ccc(C2=Nn3c(Cc4ccccc4Nc4c(Cl)cccc4Cl)nnc3SC2)cc1,Non-Toxic,–,–
CCSc1nnc(Cc2ccccc2Nc2c(Cl)cccc2Cl)o1,Non-Toxic,–,–
Fc1ccccc1CSc1nnc(Cc2ccccc2Nc2c(Cl)cccc2Cl)o1,Non-Toxic,–,–
O=[N+]([O-])c1ccc(C2=Nn3c(Cc4ccccc4Nc4c(Cl)cccc4Cl)nnc3SC2)cc1,Non-Toxic,–,–
Clc1cccc(CSc2nnc(Cc3ccccc3Nc3c(Cl)cccc3Cl)o2)c1,Non-Toxic,–,< 30
Clc1cccc(Cl)c1Nc1ccccc1Cc1nnc2n1N=C(c1ccccc1Br)CS2,Non-Toxic,–,–
Clc1cccc(Cl)c1Nc1ccccc1Cc1nnc(SCc2cccc(Br)c2)o1,Non-Toxic,–,–
Clc1ccc(C2=Nn3c(Cc4ccccc4Nc4c(Cl)cccc4Cl)nnc3SC2)cc1,Non-Toxic,Toxic,–
Clc1ccccc1CSc1nnc(Cc2ccccc2Nc2c(Cl)cccc2Cl)o1,Non-Toxic,–,< 30
Fc1ccc(C2=Nn3c(Cc4ccccc4Nc4c(Cl)cccc4Cl)nnc3SC2)cc1,Non-Toxic,Toxic,–
Clc1cccc(Cl)c1Nc1ccccc1Cc1nnc(SCc2ccccc2)o1,Non-Toxic,–,–
Clc1cccc(Cl)c1Nc1ccccc1Cc1nnc(SC2CCCCC2)o1,Non-Toxic,–,–
Clc1cccc(Cl)c1Nc1ccccc1Cc1nnc2n1N=C(c1ccccc1)CS2,Non-Toxic,–,–
Clc1cccc(Cl)c1Nc1ccccc1Cc1nnc(SCc2ccncc2)o1,Non-Toxic,Toxic,–
Cc1ccc(CSc2nnc(Cc3ccccc3Nc3c(Cl)cccc3Cl)o2)cc1,Non-Toxic,–,–
